Laboratory results as given in US11337984B2, “Methods for treating, diagnosing and prognosing a haematological malignancy” (Institut de Recerca Contra La Leucèmia Josep Carreras, priority 2014, dated 2022).
Entries after “also recorded” stand apart in the source; their conditions may differ.

Experiments:
[1] = system: HL-60, KG-1, MonoMac-1 and Kasumi-1 AML cell lines; assay: Cell viability of AML cell lines by flow cytometry (7-AAD/Hoechst, volumetric count); type: cell-based, human
Procedure: FIG. 1. […] 10^6 HL-60, KG-1, MonoMac-1 and Kasumi-1 cells per mL in complete RPMI media were treated with 0.1, 1 and 10 μM Apomorphine for 72 h. […] Cells were stained with 7-aminoactinomycin D (7-AAD, CAS no. 7240-37-1) and Hoechst 33342 (CAS no. 23491-52-3) and analyzed by flow cytometry. […] Cell number was calculated by volumetric count. A. The mean (symbol) for each AML cell line and standard deviation (error bars) from 6 different biological replicates are represented. B. The average corresponding to the four different AML cell lines is represented. *p<0.05.
FIG. 2. […] Cell number was calculated by volumetric count. A. The mean (symbol) for each AML cell line and standard deviation (error bars) from 6 different biological replicates are represented. B. AML cell lines were treated with 10 μM Apomorphine or Methiothepin in the presence or absence of 5-CT or 5-HT. *p<0.05. Apo: apomorphine; Methio: methiothepine.
In order to test the anti-leukaemic effect of 5HTR antagonists, HL-60 (Collins, Gallo et al. Nature. 1977; 270(5635):347-9), MonoMac-1 (Steube, Teepe et al. Leuk Res. 1997; 21(4):327-35), KG-1 (Koeffler and Golde. Science. 1978; 200(4346):1153-4) and Kasumi-1 (Asou, Tashiro et al. Blood. 1991; 77(9):2031-6) AML (Acute Myeloid Leukaemia) cell lines were treated with the broad 5HTR antagonist Apomorphine (CAS no. 314-19-2) at different doses for 72 h. One million cells per mL were seeded in complete RPMI media supplemented with 10% fetal bovine serum in a 96-well plate. The concentration used for the Apomorphine treatment was 0.1, 1 and 10 μM.
The human 5HTR family is composed by 7 subtypes (from 1 to 7) of receptors […]. HL-60, KG-1, MonoMac-1 and Kasumi-1 AML cell lines were incubated with subtype-specific 5HTR antagonists: Apomorphine (type 1, 2 and 5), Methiothepin (type 1 and 2) (CAS no. 74611-28-2), Amperozide (type 2) (CAS no. 75558-90-6), GR113808 (type 4) (CAS no. 144625-51-4). 72 h after treatment, cell viability was determined by flow cytometry. Cells were stained with 7-AAD (CAS no. 7240-37-1) and Hoechst 33342 (CAS no. 23491-52-3). Viability cells were identified by 7-AAD staining exclusion and the presence of Hoechst positive stain. Cell counts were measured by volume. […] In fact, the anti-leukaemic effect was reversed in the presence of a competitive agonist such as the natural ligand 5-HT (CAS no. 153-98-0) or 5-CT (CAS no. 74885-72-6).

[2] = system: HL-60, KG-1, MonoMac-1 and Kasumi-1 AML cell lines; assay: Differentiation-associated surface markers on AML cell lines by flow cytometry; type: cell-based, human; conditions: 0.1, 1 and 10 μM, 72 h; all AML cell lines
Procedure: FIG. 5. […] The surface expression of CD11c, CD11b and CD14 was detected by flow cytometry. […] MFI: Mean Fluorescence Intensity.
HL-60, KG-1, MonoMac-1 and Kasumi-1 AML cell lines were treated with Apomorphine and Methiothepin at different concentrations for 72 h as described above. The expression of differentiation-associated surface markers was measured by flow cytometry.

[3] = system: primary AML patient samples; assay: Myeloid differentiation markers on primary patient AML samples; type: cell-based, human; conditions: 0.1, 1 and 10 μM, 72 h
Procedure: FIG. 6. […] The surface expression of CD11b, CD14 and CD15 was detected by flow cytometry. […] 9 primary AML samples were analyzed in triplicates. Each symbol represents a specific AML patient.
FIG. 7. […] The surface expression of CD11b, CD14 and CD15 was detected by flow cytometry. […] 9 primary AML samples were analyzed in triplicates. Each symbol represents a specific AML patient.

[4] = system: primary AML patient cells; assay: Engraftment of ex vivo treated primary AML cells in NSG mice; set-up: species or system mouse; conditions: ex vivo 10 μM for 18 h; bone marrow 8 weeks after transplantation; versus vehicle
Procedure: (§1) FIG. 16. 5HTR antagonist treatment reduces the leukemia regeneration capacity of primary AML cells, whilst sparing healthy hematopoietic stem/progenitor cells. 1-10×10^6 primary AML patient cells or 10-14×10^4 lineage-depleted CB cells were ex vivo treated (10 μM apomorphine, 10 μM methiothepin or vehicle control) for 18 h in IMDM supplemented with 5% heat-inactivated fetal bovine serum and hematopoietic cytokines. Cells were injected IV in previously busulfan (30 mg/kg)-conditioned NSG mice and left 8 weeks untreated. Mice were sacrificed and their bones (iliac crests, femurs and tibias) were harvested and analyzed for the presence of human leukemia (upper panel) or healthy blood (lower panel) cells by flow cytometry. Four AML patient samples and three umbilical cord blood (UCB) samples were tested. *p<0.05; **p<0.01.
(§2) Leukemia-initiating cells (LIC) or LSCs are responsible for the engraftment of AML cells in xenograft mouse models and are thought to initiate and maintain the disease in humans. Primary AML patient samples were treated ex vivo with 5HTR antagonists for 18 h and transplanted into conditioned immunodeficient NSG mice. Eight weeks after transplantation, murine bone marrow was analyzed for the presence of human AML cells.

[5] = system: lineage-depleted UCB cells; assay: Engraftment of ex vivo treated lineage-depleted UCB cells in NSG mice; set-up: species or system mouse; conditions: ex vivo 10 μM for 18 h; 8 weeks after transplantation
Procedure: as §1, §2

[6] = system: healthy hematopoietic stem cells; assay: Secondary transplants of engrafted healthy cells in NSG mice; type: in vivo, mouse
Procedure: (§3) FIG. 17. Treatments with 5HTR antagonists reduce the leukemia regeneration capacity of primary AML samples in secondary recipient, without affecting normal hematopoiesis. Upper panel. 3-10×10^5 engrafted bone marrow cells from primary transplanted mice were injected intravenously into secondary recipients (conditioned NSG mice) and left untreated for 8 weeks. Bone marrow cells were analyzed as in FIG. 16. Frequency of human CD45 positive cells referred to control is represented. Lower panel. 50×10^3 engrafted human cells were screened for CFUs. The normalized number of CFUs obtained is represented. *p<0.05; ***p<0.005; ****p<0.0001.
(§4) In order to assay the in vivo self-renewal capacity remaining in the engrafted samples, secondary transplants were performed. Less than 35% of AML cells were detected in mice injected with apomorphine- or methiothepin-treated cells (FIG. 17).

AML cells = assay: CFU assay of engrafted AML samples; type: cell-based; conditions: engrafted human cells from primary transplanted mice
Procedure: as §3, §4

healthy blood cells = conditions: 0.1, 1 and 10 μM, 24 h or 72 h; healthy donor peripheral blood
[7] = system: primary haematopoietic stem/progenitor cells; assay: Viability of lineage-negative umbilical cord blood cells; conditions: 10 μM, 24 h

CN1CCc2cccc3c2[C@H]1Cc1ccc(O)c(O)c1-3 [Apomorphine, (6aR)-6-methyl-5,6,6a,7-tetrahydro-4H-dibenzo[de,g]quinoline-10,11-diol]
anti-leukaemic effect in the presence of a competitive agonist (5-HT or 5-CT) ([1]; 10 μM antagonist with 5-CT or 5-HT): reversed | cell viability of AML cell lines ([1]; 0.1, 1 and 10 μM, 72 h, HL-60, KG-1, MonoMac-1, Kasumi-1): a reduction in cell viability was detected in a dose-response fashion; also recorded: reduced AML cell viability | cell death on AML cell lines ([1]; subtype-specific 5HTR antagonists, 0.1, 1 and 10 μM, 72 h): induced cell death | expression of differentiation-associated surface markers CD11c, CD11b and CD14 [2]: induced the expression of CD11c, CD11b and CD14 | myeloid markers (CD11b, CD14, CD15) on primary AML patient samples [3]: induced the upregulation of myeloid markers; also recorded: induced myeloid differentiation | homing and engraftment capacity of treated AML cells [4]: less homing and engraftment capacity | normal hematopoietic regeneration capacity of lineage-depleted UCB cells [5]: negligible effect | self-renewal and differentiation capacity of healthy hematopoietic stem cells in secondary transplants [6]: retained their self-renewal and differentiation capacity | clonogenic capacity of engrafted AML samples (CFU assays) (AML cells): significantly reduced | healthy blood cell viability (healthy blood cells): remains unaffected | viability of healthy haematopoietic stem/progenitor cells [7]: remain unaffected
